Results on 45 compounds are retold here after patent publication US20040127518A1, “Modulation of anxiety through blockade of anandamide hydrolysis” (priority 2002, published 2004).

Entries after “also recorded” stand apart in the source; their conditions may differ. Where two headings read alike, the source gives them in different places.

The target in one test is T1, FAAH (Rattus norvegicus, UniProt P97612).
T1 sequence (P97612 1-579): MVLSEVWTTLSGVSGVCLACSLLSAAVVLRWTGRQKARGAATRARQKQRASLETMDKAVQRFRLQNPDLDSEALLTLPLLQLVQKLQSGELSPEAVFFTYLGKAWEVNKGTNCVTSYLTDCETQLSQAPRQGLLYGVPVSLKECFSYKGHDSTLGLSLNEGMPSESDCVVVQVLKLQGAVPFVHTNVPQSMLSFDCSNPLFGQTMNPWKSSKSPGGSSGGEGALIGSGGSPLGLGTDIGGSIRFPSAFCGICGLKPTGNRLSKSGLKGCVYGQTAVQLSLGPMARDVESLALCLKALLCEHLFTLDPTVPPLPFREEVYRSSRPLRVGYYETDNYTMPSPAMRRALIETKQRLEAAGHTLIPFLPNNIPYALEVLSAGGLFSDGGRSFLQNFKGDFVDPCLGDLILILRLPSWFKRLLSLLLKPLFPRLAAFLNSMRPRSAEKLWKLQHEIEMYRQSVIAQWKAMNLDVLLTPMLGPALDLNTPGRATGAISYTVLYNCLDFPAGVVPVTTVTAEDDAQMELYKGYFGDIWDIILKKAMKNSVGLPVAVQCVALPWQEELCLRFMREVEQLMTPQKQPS
Put plainly: biochemical. More on the design: from tissue; host or cells: rat brain (membrane fraction of homogenate; Wistar rats). Format: biochemical.

Test [1] has as its target T2, electric eel acetylcholinesterase (Electrophorus electricus, UniProt O42275). The test can be described thus: biochemical.
Excerpt: (§1) We prepared cell fractions from rat brain homogenates, and assayed membrane FAAH activity and cytosol MGL activity using anandamide [ethanolamine-3H] (American Radiolabeled Chemicals, ARC (St. Louis Mo.), 60 Ci/mmol) and 2-mono-oleoyl-glycerol-[glycerol-1,2,3^−3H] (ARC, St. Louis Mo., 20 Ci/mmol), respectively, as substrates (Dinh, T. Proc. Natl. Acad. Sci. U.S.A. (2002)). We conducted [^3H]anandamide transport assays in human astrocytoma cells (Piomelli, D. et al., Proc. Natl. Acad. Sci. U.S.A., 96, 5802-5807 (1999)); CB1 and CB2 binding assays in rat cerebellar membranes and CB2-overexpressing Chinese hamster ovary cells (Receptor Biology-Perkin Elmer, Wellesley, Mass.), respectively, using [^3H]WIN-55212-2 (NEN-Dupont, Boston, Mass., 40-60 Ci/mmol) as a ligand (Devane, W. A. et al. Science, 258, 1946-1949 (1992)); cholinesterase assays with a commercial kit (Sigma, St. Louis, Mo.), using purified enzymes (electric eel acetylcholinesterase type V-S and horse serum cholinesterase; both from Sigma, St. Louis, Mo.) and following manufacturer's instructions.
For a further test, the system named is rat cortical neurons. The test can be described thus: Transport, accumulation and release of non-metabolized [3H]anandamide in cortical neurons. Type of test: cell-based. To be noted: AM404 10 μM.
In test [2] the target is T2, electric eel acetylcholinesterase. To be noted: read-out: Cholinesterase IC50; Table 3; acetylcholinesterase.
Excerpt: as §1
[3] abbreviates: Table 3, read-out: Amidohydrolase IC50.
Where [4] appears, read: Table 4, FAAH IC50, read-out: Inhibition of Amidohydrolase IC50.
The mark [5] stands for this setting: read-out: Inhibition of Amidohydrolase IC50.
Where [6] appears, read: Table 5, rat brain membranes, [3H]anandamide, read-out: IC50 (nM) ± S.E.M.
Where [7] appears, read: Table 6, meta-substituted derivatives, read-out: pIC50 obsd (converted).
[8] abbreviates: Inhibition of Amidohydrolase IC50(μM).

T2 sequence (O42275 whole entry): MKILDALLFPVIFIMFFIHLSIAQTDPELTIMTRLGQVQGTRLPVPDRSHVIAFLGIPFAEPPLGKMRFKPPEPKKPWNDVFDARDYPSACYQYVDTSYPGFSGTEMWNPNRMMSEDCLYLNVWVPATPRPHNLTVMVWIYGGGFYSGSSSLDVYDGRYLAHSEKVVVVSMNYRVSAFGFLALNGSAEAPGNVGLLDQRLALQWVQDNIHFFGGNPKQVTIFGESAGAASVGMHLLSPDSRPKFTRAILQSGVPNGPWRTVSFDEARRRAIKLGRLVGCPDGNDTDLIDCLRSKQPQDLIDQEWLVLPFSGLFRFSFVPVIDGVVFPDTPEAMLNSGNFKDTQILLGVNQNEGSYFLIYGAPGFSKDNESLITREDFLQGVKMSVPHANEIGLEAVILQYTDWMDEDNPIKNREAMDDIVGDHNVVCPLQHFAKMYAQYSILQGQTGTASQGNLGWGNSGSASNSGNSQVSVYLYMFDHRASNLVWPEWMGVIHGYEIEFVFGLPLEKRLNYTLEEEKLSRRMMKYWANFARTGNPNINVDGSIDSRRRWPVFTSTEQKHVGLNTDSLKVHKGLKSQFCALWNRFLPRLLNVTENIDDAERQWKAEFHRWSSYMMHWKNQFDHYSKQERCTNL

Take `CC(C)(C)NC(=O)Oc1ccc(-c2ccccc2)cc1Cl` [PL#10, 3-chloro-4-biphenylyl N-tert-butylcarbamate]: the IC50 (on FAAH (setting [3]); on FAAH (setting [4]); in test [1]) was over 30000 nM in each case.
Turning to `CCCCC/C=C\C/C=C\C/C=C\C/C=C\CCCC(=O)Nc1ccc(O)cc1` [AM404, N-(4-hydroxyphenyl)arachidonamide, reference compound], the “accumulation of non-metabolized [3H]anandamide in neurons” value in the test with rat cortical neurons (4-min incubation, UCM532 3 μM, UCM597 10 nM) is on record as “significantly reducing; also recorded: reduces”. The “effect on [3H]anandamide release from UCM597-treated neurons” value with rat cortical neurons (15-min incubation) was “not inhibited”.
Take 4-fluoraphenyl N-butylcarbamate [PL#12]: the figures for the IC50 (on FAAH (setting [3]); at FAAH (setting [4]); in test [2]) were 11500 nM, 11500 nM and over 30000 nM, respectively.
Turning to `Cc1ccc(OC(=O)NC2CCCCC2)cc1` [PL#6, p-toly-N-cyclohexy carbamate], the IC50 at FAAH (setting [3]) was 5400 nM; at FAAH (setting [4]), 5400 nM; in test [1], over 30000 nM.
For the compound `O=C(Oc1ccccc1)N1CCCCC1` [PL#1, 1-phenyl-N-piperidinecarboxylate], the IC50 (at FAAH (setting [3]); on FAAH (setting [4]); in test [1]) was over 30000 nM throughout.
For `CCCCNC(=O)Oc1ccc2cc(Br)ccc2c1` [PL#3, 6-bromo-2-naphtyhyl N-butylcarbamate], the IC50 at FAAH (setting [3]) is 760 nM; at FAAH (setting [4]), 760 nM; in test [1], over 30000 nM.
Take `O=C(NC1CCCCC1)Oc1ccc(-c2ccccc2)cc1` [PL#5, 4-biphenyl N-cyclohexylcarbamate]: the IC50 on FAAH (read-out: Amidohydrolase IC50) is 2300 nM; at FAAH (setting [5]), 2300 nM; in test [1], over 30000 nM.
In the case of “2.3-dihyrdo-2.2-dimethyl-7-benzogumaol N-methylcarbamate [PL#15, reference compound]”, the IC50 on FAAH (setting [3]) is over 30000 nM; at FAAH (setting [4]), over 30000 nM; in test [2] it was 560 nM.
Turning to `CNC(=O)Oc1ccc2ccccc2c1` [PL#4, 2-naphtyl-N-methylcarbamate], the IC50 is 18600 nM on FAAH (Table 1, rat brain membranes, mean of at least three experiments, read-out: IC50); 18700 nM on FAAH (setting [3]); 18600 nM at FAAH (setting [4]); 18600 ± 700 nM on FAAH (rat brain membranes, mean±SEM, n=3, read-out: IC50); over 30000 nM in test [1].
For the compound `CCCCOC(=O)Oc1ccc(C(=O)Oc2ccc(OC)cc2)cc1` [PL#17, O-butyl 4-(4-methoxyphenoxycarbonyl)-phenyl carbonate], the IC50 at FAAH (setting [3]) was 9100 nM; at FAAH (setting [4]), 9100 nM; in test [1], over 30000 nM.
Take `O=C(NC1CCCCC1)Oc1cccc(-c2cccc(-c3ccccc3)c2)c1` [Compound 3n]: the IC50 was 565 ± 42 nM at FAAH (setting [6]) and 562 nM at FAAH (setting [7]).
Regarding `O=C(Nc1ccc2ccccc2c1)N1CCCCC1` [PL#22], the IC50 at FAAH (setting [4]) was over 30000 nM.
With `Nc1ccc(OC(=O)NC2CCCCC2)cc1-c1ccccc1` [PL#59], the IC50 on FAAH (setting [4]) is 50 nM.
Regarding `Nc1ccc(-c2cccc(OC(=O)NC3CCCCC3)c2)cc1` [PL#39], at FAAH (setting [8]), the IC50 came out at 510 nM.
With `NC(=O)c1ccc(-c2cccc(OC(=O)NC3CCCCC3)c2)cc1` [PL#40], the IC50 at FAAH (setting [4]) is over 10000 nM.
Still for that read-out and setting: the result for `O=C(NC1CCCCC1)Oc1cccc(-c2cccc(Oc3ccccc3)c2)c1` [#35] reads 2600 nM.
For the compound `Cc1ccc(-c2cccc(OC(=O)NC3CCCCC3)c2)cc1` [Compound 3b], the IC50 on FAAH (setting [6]) was determined as 155 ± 21 nM.
As to `NS(=O)(=O)c1cccc(-c2cccc(OC(=O)NC3CCCCC3)c2)c1` [Compound 3r], the IC50 is 26.5 ± 4.5 nM at FAAH (setting [6]) and 26.3 nM at FAAH (setting [7]).
For `O=C(Nc1ccccc1)OC1CCCCC1` [PL#56], at FAAH (setting [4]), the IC50 stood at 3100 nM.
With `O=C(NC1CCCCC1)Oc1cccc(-c2cccc([N+](=O)[O-])c2)c1` [Compound 3q], the IC50 is 49.6 ± 2 nM on FAAH (setting [6]) and 50.1 nM on FAAH (setting [7]).
In turn, `Nc1ccc(-c2cccc(OC(=O)NC3CCCCC3)c2)cc1` [Compound 3d] displayed an IC50 against FAAH (IC50 (nM) ± S.E.M.) of 360 ± 59 nM.
Turning to `O=C(NC1CCCCC1)Oc1cccc(-c2cccc(-c3ccccc3)c2)c1` [#34], the IC50 on FAAH (setting [4]) turned out to be 560 nM.
As for `O=C(NC1CCCCC1)Oc1ccc2ccccc2c1` [PL#11, 2-naphthyl N-cyclohexylcarbamate], the IC50 is 330 nM on FAAH (setting [3]); 330 nM at FAAH (setting [4]); 324 ± 31 nM on FAAH (rat brain membranes, read-out: IC50); over 30000 nM in test [1].
As to `O=C(Nc1ccc(F)cc1)Oc1ccc(OCc2ccccc2)cc1` [PL#8, 4-(benzyloxy) phenyl N-(4-fluorophenyl)carbamate], the IC50 (at FAAH (setting [3]); at FAAH (setting [4]); in test [1]) was over 30000 nM each time.
As to `O=C(NC1CCCCC1)Oc1cc(-c2ccccc2)ccc1[N+](=O)[O-]` [PL#60], the IC50 on FAAH (setting [4]) was over 30000 nM.
As to `O=C(NC1CCCCC1)Oc1cccc(-c2cccc(Oc3ccccc3)c2)c1` [Compound 3m], the values for the IC50 on FAAH (setting [6]) and at FAAH (setting [7]) were 420 ± 86 nM and 417 nM, respectively.
On to `CNC(=O)Oc1cccc2ccccc12` [PL#18, carbaryl, reference compound], for which, on FAAH, the “inhibition of FAAH activity (in words)” value was “ineffective”. In addition, the results for the IC50 (against FAAH (IC50(nM)); in test [2]) were over 100000 nM and 3100 nM, respectively.
In the case of `O=C(NC1CCCCC1)Oc1cccc(-c2cccc(CCO)c2)c1` [Compound 3w], the IC50 at FAAH (setting [6]) was 18.7 ± 4.5 nM; on FAAH (setting [7]) it was 18.6 nM.
Consider `O=C(NC1CCCCC1)Oc1cccc(-c2cccc(O)c2)c1` [Compound 3u], for which the IC50 against FAAH (IC50 (nM) ± S.E.M.) was 8.65 ± 0.1 nM; against FAAH (pIC50 obsd) it was 8.71 nM.
For the compound `O=C(NC1CCCCC1)Oc1ccc2ccn(-c3ccccc3)c2c1` [#36], the IC50 at FAAH (setting [4]) stood at 1400 nM.
With `CCCc1cccc(-c2cccc(OC(=O)NC3CCCCC3)c2)c1` [PL#62], the IC50 against FAAH (setting [8]) worked out at 80 nM.
Same read-out and setting: the result for `O=C(NC1CCCCC1)Oc1ccc(/C=C\c2ccccc2)cc1` [PL#25] reads 240 nM.
Take `NC(=O)c1ccc(-c2cccc(OC(=O)NC3CCCCC3)c2)cc1` [Compound 3c]: the IC50 at FAAH (setting [6]) is 5910 nM.
Compound `O=C(NC1CCCCC1)Oc1cccc(-c2cccc(C(F)(F)F)c2)c1` [PL#44] came in with an IC50 against FAAH (setting [8]) of 130 nM.
With `NC(=O)c1ccc(OC(=O)NC2CCCCC2)cc1-c1ccccc1` [PL#49], on FAAH (setting [4]), the IC50 stood at 200 nM.
`NCc1cccc(-c2cccc(OC(=O)NC3CCCCC3)c2)c1` [Compound 3z] came in with an IC50 against FAAH (IC50 (nM) ± S.E.M.) of 21200 nM.
On to `CCCCCc1cccc(OC(=O)NC2CCCCC2)c1` [#33], for which the IC50 on FAAH (setting [4]) is 220 nM.
Consider `O=C(NC(=O)c1ccc(-c2cccc(OC(=O)NC3CCCCC3)c2)cc1)NC1CCCCC1` [Compound 3f], for which, at FAAH (IC50 (nM) ± S.E.M.), the IC50 turned out to be 3020 nM.
Take `Nc1cccc(-c2cccc(OC(=O)NC3CCCCC3)c2)c1` [PL#45]: at FAAH (setting [8]), the IC50 was determined as 60 nM.
Regarding `O=C(NC1CCCCC1)Oc1cccc(-c2cccc(F)c2)c1` [PL#47], the IC50 at FAAH (setting [4]) is 92 nM.
For the compound `O=C(NC1CCCCC1)Oc1ccc(/C=C/c2ccccc2)cc1` [PL#24], the IC50 on FAAH (setting [5]) is 3300 nM.
As for `O=C(Nc1cccc2ccccc12)NC1CCCCC1` [PL#20], at FAAH (setting [4]), the IC50 was over 30000 nM.
Consider `O=C(NC1CCCCC1)Oc1cccc(-c2cccc(CO)c2)c1` [Compound 3v], for which the IC50 on FAAH (setting [6]) is 8.67 ± 0.9 nM; on FAAH (setting [7]), 8.71 nM.
For hexyl-N-cyclohexyl carbamate [PL#9], the IC50 was 3700 nM at FAAH (setting [3]), 3700 nM on FAAH (setting [4]) and over 30000 nM in test [2].
Turning to `O=C(NC1CCCCC1)Oc1cccc(-c2cccc(F)c2)c1` [Compound 3k], the IC50 is 96.6 ± 4 nM on FAAH (setting [6]) and 95.5 nM on FAAH (setting [7]).
